Data set [1] can be described thus: Tumor platinum levels (ICP-MS) in H460 tumor-bearing nude mice. The data set is classed as in vivo, mouse. The procedure: To examine the ability of compounds disclosed herein to accumulate in tumors, a murine cancer model was used. Animals were inoculated with 5×10^5 H460 […] lung cancer cells via subcutaneous injection to the flank. Tumors were allowed to reach an approximate volume of ˜500 mm^3. Animals were then randomized into treatment groups of 3 animals per time point and were dosed at 4 mg/kg. The 24-hour time point was used as a benchmark across compounds.
Tumor platinum levels were determined by inductively coupled plasma mass spectrometry (ICP-MS). Tumors were excised from animals and dissolved in fuming nitric acid (60% w/w) by adding four parts nitric acid to 1 part tumor w/w and heating overnight at 60° C. The resulting digest was diluted 1:10 in ICP-MS analysis buffer (1% nitric acid, 2% Triton® X-100), and directly introduced into the ICP-MS unit by peristaltic pump. The end dilution factor for the samples as introduced to the ICP-MS was 50×.

Another data set relates to A2780 ovarian xenografts. The data set can be described thus: Tumor growth inhibition in A2780 ovarian xenografts in nude mice. The following applies: for TGI %: dose not given; for TGI % compared to cisplatin and oxaliplatin (FIG. 17): in vivo screen, A2780 model. The data set is classed as in vivo, mouse. An excerpt:
(§1) Tumor measurements were taken twice weekly, using vernier calipers.

The subject of the next data set is Calu-6 NSCLC xenografts. Nature of the data set: Tumor growth inhibition in Calu-6 NSCLC xenografts in nude mice. The data set is classed as in vivo, mouse. The following applies: dose not given.
Description: as §1

Another data set relates to H460 cells. Nature of the data set: In vitro inhibition of cell proliferation (CellTiter-Glo). The format is cell-based, human. The following applies: 48 hours treatment; starting dose 20 uM, three-fold dilutions. The procedure: Human cancer cell lines were plated in 96 well plates (Costar) and 24 hours later were treated with a compound for 48-72 hours. Specifically, H460 cells (ATCC) were plated at a concentration of 1,500 cells per well and compound treatment was carried out for 48 hours. Compound starting dose was 20 uM and three-fold serial dilutions were done for a total of ten points. Inhibition of cell proliferation was measured using CellTiter-Glo® reagent using the standard protocol (Promega) and a Glomax® multi+detection system (Promega). Percent proliferation inhibition was calculated using the following formula: % inhibition=(control-treatment)/control*100. Control is defined as vehicle alone. IC50 curves were generated using the nonlinear regression analysis (four parameter) with GraphPad Prism 6.

Data set [2] concerns MX-1 human breast cancer xenograft. The data set is classed as in vivo, mouse. The following applies: for % T/C (mean tumor volume) / % T/C (median tumor volume) / Mean tumor volume / Median tumor volume: days 1, 5, 8, 12. An excerpt: MX-1 cell line is estrogen receptor negative and Her2 normal. It is generic and BRCA1 and BRCA2 mutant: BRCA1 truncating mutation (3363delGAAA) and BRCA2 mutations (16864A>C, Asn289His, and 22184A>G, Asn991Asp). Average tumor volumes and platinum levels in the tumors were shown in FIG. 29 and Table 9. % T/C in Table 9 is the tumor to control ratio, i.e., the size of tumor divided by the size of tumor control. The lower % T/C is, the higher TGI % is.

The next data set in a line: Rat toxicology study. The format is in vivo.
Another data set concerns NCI-H520. The data set can be described thus: Multiple-dose efficacy study in lung cancer (NSCLC) model NCI-H520. The data set is classed as in vivo. The following applies: 15 mg/kg. As to the method:
Tumor volumes and platinum levels were tracked over a course of 32 days after treatment of multiple doses of compound 8 (dosed at days 0, 3, 7 and 10) in lung cancer (NSCLC) model NCI-H520. Compound 8 was dosed at 15 mg/kg.
Cell dedifferentiation and apoptosis were studied with immunohistochemical (IHC) and TUNEL stainings.

[3] abbreviates: H460 tumors, dosed at 4 mg/kg, 24-hour time point.
[4] abbreviates: Table 5 study, A2780 xenografts.
[5] abbreviates: Table 6 study, Calu-6 xenografts.
Setting [6] is: nude, mouse, in vivo, 4 mg/kg, 24 h.

Read-outs that look alike come from different tables or passages of the source.

In the case of `N.N.[Cl][Pt][Cl]` [Cisplatin], in data set [1] (setting [3]), the “Platinum in tumor (mM/mmole/kg platinum dosed)” value (“Platinum in tumor” for short) was 0.27 mM/mmole/kg platinum dosed. Also, the TGI % in the data set with A2780 ovarian xenografts (Table 2 study, comparators) was 54.5%; in the data set with A2780 ovarian xenografts (Table 3 study, comparators) it was 44.2%; in the data set with A2780 ovarian xenografts (setting [4]), 53.04%; in the data set with Calu-6 NSCLC xenografts (Table 4 study, comparators) it was 91.4%; with Calu-6 NSCLC xenografts (setting [5]), 94.57%. In addition, in the data set with H460 cells, the IC50 amounted to 2 µM. For the same compound, the “% T/C (mean tumor volume)” value is 100.6% in data set [2] (Day 1, 3 mg/kg); 96.2% in data set [2] (Day 5, 3 mg/kg); 39.3% in data set [2] (Day 8, 3 mg/kg); 4.9% in data set [2] (Day 12, 3 mg/kg); 1.4% in data set [2] (Day 15, 3 mg/kg). Moreover, the “% T/C (median tumor volume)” value in data set [2] (Day 1, 3 mg/kg) stood at 105.5%; in data set [2] (Day 5, 3 mg/kg), 107.3%; in data set [2] (Day 8, 3 mg/kg), 42.9%; in data set [2] (Day 12, 3 mg/kg) it was 5.4%; in data set [2] (Day 15, 3 mg/kg) it was 1.5%. For the same compound, the Mean tumor volume was 153.6 mm^3 in data set [2] (Day 1, 3 mg/kg); 343.7 mm^3 in data set [2] (Day 5, 3 mg/kg); 251.2 mm^3 in data set [2] (Day 8, 3 mg/kg); 57.6 mm^3 in data set [2] (Day 12, 3 mg/kg); 26.7 mm^3 in data set [2] (Day 15, 3 mg/kg). For the same compound, the Median tumor volume in data set [2] (Day 1, 3 mg/kg) is given as 155.2 mm^3; in data set [2] (Day 5, 3 mg/kg), 350.2 mm^3; in data set [2] (Day 8, 3 mg/kg), 266.3 mm^3; in data set [2] (Day 12, 3 mg/kg), 57.6 mm^3; in data set [2] (Day 15, 3 mg/kg), 29.7 mm^3. Further, the “TGI % Day 15” value in data set [2] (Day 15, 3 mg/kg) is reported as 98.6%.

For `CCNC(=O)[O][Pt]([NH2])([NH2])([Cl])([Cl])[O]C(=O)CCCCCN1C(=O)C=CC1=O` [Compound 7], the “Platinum in tumor” value in data set [1] (setting [6]) is reported as 0.51 mM/mmole/kg platinum dosed.

As to `CC(=O)[O][Pt]([NH2])([NH2])([Cl])([Cl])[O]C(=O)NCCCCCN1C(=O)C=CC1=O` [Compound 8], the “Platinum in tumor” value in data set [1] (setting [6]) is recorded as 0.51 mM/mmole/kg platinum dosed. For the same compound, the “TGI % compared to cisplatin and oxaliplatin (FIG. 17)” value (“TGI % … (FIG. 17)” below) with A2780 ovarian xenografts is “superior TGI % to cisplatin and oxaliplatin”. For the same compound, the “kidney toxicity (blood markers and histopathology) compared to cisplatin” value in “Rat toxicology study” (at a higher dose of platinum) was “improvement in kidney toxicity compared to cisplatin”. The other histopathology findings result in “Rat toxicology study” (rat, in vivo) was “No other histopathology findings”. Besides, the “tumor growth inhibition versus cisplatin” value in the data set on NCI-H520 (days 0, 3, 7 and 10, cisplatin 3 mg/kg, 32 days) is listed as “superior tumor growth inhibition than cisplatin”. The “apoptosis and dedifferentiation in tumors (IHC, TUNEL)” value with NCI-H520 (images from day 10) is “significant and sustained increase in apoptosis and dedifferentiation”. The “tumor outcome at day 15 (in words)” value in data set [2] (day 15) is recorded as “Tumor disappeared”.

In the case of `COCC(=O)[O][Pt]([NH2])([NH2])([Cl])([Cl])[O]C(=O)CCCCCN1C(=O)C=CC1=O` [Compound 9], the “Platinum in tumor” value in data set [1] (setting [6]) is listed as 0.53 mM/mmole/kg platinum dosed.

Take `CC(=O)[O][Pt]([NH2])([NH2])([Cl])([Cl])[O]C(=O)CCCCCN1C(=O)C=CC1=O` [Compound 11]: the “Platinum in tumor” value in data set [1] (setting [6]) is recorded as 0.68 mM/mmole/kg platinum dosed. The “TGI % … (FIG. 17)” value with A2780 ovarian xenografts was “superior TGI % to cisplatin and oxaliplatin”.

With `O=C1[O][Pt]2([NH][C@@H]3CCCC[C@H]3[NH]2)[O]C1=O` [Oxaliplatin], in data set [1] (setting [3]), the “Platinum in tumor” value is reported as 0.12 mM/mmole/kg platinum dosed. Further, the TGI % in the data set with A2780 ovarian xenografts (Table 2 study, comparators) is reported as 45.9%; in the data set with A2780 ovarian xenografts (Table 3 study, comparators) it was 40.1%; with A2780 ovarian xenografts (setting [4]) it was 43.75%; in the data set on Calu-6 NSCLC xenografts (Table 4 study, comparators), 56.7%; in the data set with Calu-6 NSCLC xenografts (setting [5]), 21.19%.

For the compound “acetate 6-(2,5-dioxo-2H-pyrrol-1(5H)-yl) hexanoate oxaliplatin [Compound 1]”, the “Platinum in tumor” value in data set [1] (setting [3]) is recorded as 0.57 mM/mmole/kg platinum dosed. For the same compound, the “TGI % … (FIG. 17)” value in the data set on A2780 ovarian xenografts is “superior TGI % to cisplatin and oxaliplatin”.
